Measured values published in the supplement of paper PMC10307832.

Key:
Test in all cases: relative viability (nuclei count vs DMSO), 5 days (fraction); higher = more cells survive
Veliparib + Tozasertib = compound: C[C@]1(c2nc3c(C(N)=O)cccc3[nH]2)CCCN1 [Veliparib] + Cc1cc(Nc2cc(N3CCN(C)CC3)nc(Sc3ccc(NC(=O)C4CC4)cc3)n2)n[nH]1 [Tozasertib] (partner 0.1 µM)
Summary of the method: (§1)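 Cells from lung cancer lines were seeded into 1536-well plates and, one day later, dosed by pin tool. Treatments were either a single drug or a fixed dose of an anchor drug with five library-drug doses (not always all listed) in √10 steps. After 5 days, nuclei were stained in a one-step fixation (final 0.05% Triton X-100, 1% formaldehyde, 1 ug/ml Hoechst) and counted on 4× images, and relative viability is the treated-to-vehicle nuclei ratio, as the median of duplicate plates.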

Veliparib + Pemetrexed = compound: C[C@]1(c2nc3c(C(N)=O)cccc3[nH]2)CCCN1 [Veliparib] + Nc1nc2[nH]cc(CCc3ccc(C(=O)N[C@@H](CCC(=O)O)C(=O)O)cc3)c2c(=O)[nH]1 [Pemetrexed] (partner 0.2 µM)
Summary of the method: as §1

[1] = compound: COC1=CC=C(C=C1)CN2C=CC3=C2C=C(C=C3)C(=O)NO + Cc1nc(Nc2ncc(C(=O)Nc3c(C)cccc3Cl)s2)cc(N2CCN(CCO)CC2)n1 [Dasatinib] (partner 0.075 µM)
Summary of the method: as §1

Veliparib + Bortezomib = compound: C[C@]1(c2nc3c(C(N)=O)cccc3[nH]2)CCCN1 [Veliparib] + CC(C)C[C@H](NC(=O)[C@H](Cc1ccccc1)NC(=O)c1cnccn1)B(O)O [Bortezomib] (partner 0.002 µM)
Summary of the method: as §1

Cell Line	relative viability (Veliparib + Tozasertib; first compound 0.02 µM)	relative viability (Veliparib + Tozasertib; first compound 0.06325 µM)	relative viability (Veliparib + Tozasertib; first compound 0.2 µM)	relative viability (Veliparib + Tozasertib; first compound 0.6325 µM)	relative viability (Veliparib + Tozasertib; first compound 2 µM)	relative viability (Veliparib + Pemetrexed; first compound 0.02 µM)	relative viability (Veliparib + Pemetrexed; first compound 0.06325 µM)	relative viability (Veliparib + Pemetrexed; first compound 0.2 µM)	relative viability (Veliparib + Pemetrexed; first compound 0.6325 µM)	relative viability (Veliparib + Pemetrexed; first compound 2 µM)	relative viability ([1]; first compound 0.08 µM)	relative viability ([1]; first compound 0.253 µM)	relative viability ([1]; first compound 0.8 µM)	relative viability ([1]; first compound 2.53 µM)	relative viability ([1]; first compound 8 µM)	relative viability (Veliparib + Bortezomib; first compound 0.02 µM)	relative viability (Veliparib + Bortezomib; first compound 0.06325 µM)	relative viability (Veliparib + Bortezomib; first compound 0.2 µM)	relative viability (Veliparib + Bortezomib; first compound 0.6325 µM)	relative viability (Veliparib + Bortezomib; first compound 2 µM)
HCC-827	0.436	0.443	0.434	0.376	0.398	0.25	0.282	0.256	0.215	0.273	0.429	0.395	0.277	0.297	0.275	1.02	0.914	1.01	1.13	1.13
HOP-62	0.327	0.382	0.419	0.328	0.39	0.311	0.376	0.365	0.329	0.373	0.601	0.72	0.658	0.66	0.529	0.729	1.16	0.811	0.733	0.951
IA-LM																0.831	0.748	0.794	0.83	0.813
LC-2-ad		0.456	0.486	0.417	0.445	0.277	0.277	0.273	0.263	0.287	0.407	0.633	0.582	0.677	0.349		0.987	0.985	0.944	1.05
LCLC-97TM1	0.231	0.237	0.204	0.197	0.253	0.19	0.173	0.177	0.141	0.189	0.294	0.667	0.938	0.801	0.721		0.269	0.554	1.12	0.834
LCLC-103H	0.528	0.339	0.463	0.443	0.485	0.447	0.49	0.454	0.422	0.478	0.553	0.506	0.62	0.539	0.392	0.822	0.963	1.01	1.05	0.933
LK-2		0.152	0.159	0.221	0.18	0.324	0.307	0.311	0.203	0.299		0.358	0.335	0.298	0.293					
NCI-H358	0.121	0.107	0.106	0.106	0.102	0.206	0.173	0.165	0.146	0.176		0.152	0.192	0.157	0.126					
NCI-H522	0.628	0.579	0.508	0.598	0.545	0.981	0.814	0.761	1.16	0.785		0.904	1.12	0.781	0.765					
NCI-H727	0.672	0.648	0.573	0.495	0.654						0.349	0.315	0.437	0.417	0.303	0.381	0.754	0.755	0.82	0.815
NCI-H1299																1.04	0.979	1.02	1.03	1
NCI-H1395	0.684	0.787	0.754	0.656	0.706	0.762	0.886	0.768	0.792	0.653	0.394	0.381	0.431	0.446	0.35					
NCI-H1563						0.694	0.766	0.742	0.728	0.685	0.435	0.485	0.436	0.433	0.399	0.645	0.803	0.859	0.792	0.799
NCI-H1623		0.439	0.428	0.461	0.444						0.389	0.487	0.517	0.525	0.418					
NCI-H1648	0.723	0.469	0.383	0.405	0.363	1			1.02	0.709										
NCI-H1703																0.366	0.308	0.408	0.354	0.426
NCI-H1792						0.724	0.503	0.653	0.786	0.66	0.705	0.841	0.749	0.726	0.715	0.924	0.858	0.981	0.916	0.897
NCI-H1793	0.364	0.349	0.391	0.371	0.41	0.755	0.763	0.935	1.07	0.875		0.354	0.382	0.4	0.412					
NCI-H1944	0.261	0.253	0.252	0.251	0.249	0.596	0.695	0.547	0.607	0.615		0.215	0.235	0.237	0.204					
NCI-H2170	0.748	0.744	0.724	0.709	0.747	0.256	0.244	0.253	0.237	0.273	0.456	0.687	0.711	0.69	0.541					
NCI-H2342	0.498	0.573	0.421	0.504	0.508	0.675	0.721	0.744	0.784	0.771	0.297	0.321	0.305	0.304	0.313					
SK-MES-1	0.972	0.903	0.843	0.821	0.858	1	0.901	0.946	0.901	0.995	0.475	0.363	0.542	0.396	0.262					
SW 900			0.636	0.533	0.586		0.492	0.493	0.467	0.511	0.541	0.556	0.628	0.629	0.334					
